Source: US5945406A, “Therapeutic compounds with pyrimidine base” (Oxford Glycosciences (UK) Ltd., priority 1995, dated 1999)

Legend:
[1] = tested on: human HepG2 flank tumours; assay: Efficacy in vivo: antitumour activity against subcutaneous human HepG2 flank tumours in nude mice (Example 20); design: species or system human tumour in nude mice; conditions: for Average tumour size (at sacrifice): control 10.4; for Average tumour size (at sacrifice) / Number of mice surviving after tumour innoculation, day 17 / Number of mice surviving after tumour innoculation, day 25 / Number of mice surviving after tumour innoculation, day 30 / toxic side effects to the animals / appearance of treated animals / rate of disease progression in treated animals / survival time of treated mice over untreated animals: 1300 mg/kg; for Number of mice surviving after tumour innoculation, day 0: day 0 after tumour inoculation; for Number of mice surviving after tumour innoculation, day 17: day 17 after tumour inoculation; for Number of mice surviving after tumour innoculation, day 25: day 25 after tumour inoculation; for Number of mice surviving after tumour innoculation, day 30: day 30 after tumour inoculation
Protocol: Nude mice were inoculated with subcutaneous human HepG2 flank tumours to determine the antitumour activity of Compound 1 in vivo. After allowing the tumours to develop for the first seven days, we attempted to prevent tumour progression by seven ip treatments every 48 hours at doses of 1300 mg/kg.

nude mice [2] = conditions: mouse, in vivo, ip
Protocol: The toxicity of Compound 1 (as described in Example 1) relative to 5-FU was determined in nude mice. Clinical grade 5-FU was used to provide a point of comparison with other toxicity studies in the literature. Animals were injected six times ip, in groups of 5, every 48 hours, with various doses of 5-FU or Compound 1.

nude mice [3] = conditions: single bolus toxicity; NCI data base; cited from earlier work
[4] = seven ip treatments every 48 hours

Row | Molecule | Average tumour size (at sacrifice) [1, 4] | Number of mice surviving after tumour innoculation, day 0 [1] [mice] | Number of mice surviving after tumour innoculation, day 17 [1, 4] [mice] | Number of mice surviving after tumour innoculation, day 25 [1, 4] [mice] | Number of mice surviving after tumour innoculation, day 30 [1, 4] [mice] | toxic side effects to the animals ([1]; in vivo, ip) | appearance of treated animals [1, 4] | rate of disease progression in treated animals [1, 4] | survival time of treated mice over untreated animals [1, 4] | MAD (maximal achievable dose) (nude mice [2]) [mg/kg] | appearance of treated animals ([1]; in vivo, ip) | LD10 (nude mice [3]) [mg/kg] | LD50 (nude mice [3]) [mg/kg] | toxic side effects to the animals [1, 4]
1 | 1-(β-L-2-Arabinopyranosyl)-5-fluorouracil and 1-(α-L-2-Arabinopyranosyl)-5-fluorouracil [Compound 6] | 6.2 | 5 | 4 | 2 | 2 | without causing any toxic side effects | very healthy appearance | significantly slowed the rate by which the disease progressed | increased survival time |  |  |  |  | 
2 | 1-β-D-Galactopyranosyl-5-fluorouracil and 1-α-D-Galactopyranosyl-5-fluorouracil [Compound 1] | 9.4 | 5 | 3 | 2 | 1 | without causing any toxic side effects |  | significantly slowed the rate by which the disease progressed | increased survival time | 1300 | very healthy appearance |  |  | 
3 | 1-β-L-Galactopyranosyl-5-fluorouracil and 1 -α-L-Galactopyranosyl-5-fluorouracil [Compound 2] | 5.6 | 5 | 5 | 3 | 2 | without causing any toxic side effects |  | significantly slowed the rate by which the disease progressed | increased survival time |  | very healthy appearance |  |  | 
4 | O=c1[nH]cc(F)c(=O)[nH]1 [Compound 5-FU, 5-Fluorouracil, reference compound] | 10.2 | 5 | 3 | 2 | 0 |  |  |  |  |  |  | 165 | 360 | 
5 | CC(=O)N[C@@H]1[C@@H](O)[C@@H](O)[C@@H](CO)O[C@H]1n1cc(F)c(=O)[nH]c1=O [Compound 10, 1-(β-D-2-Deoxy-2-N-acetylgalactopyranosyl)-5-fluorouracil] | 9 | 5 | 3 | 2 | 1 |  | very healthy appearance | significantly slowed the rate by which the disease progressed | increased survival time |  |  |  |  | without causing any toxic side effects
